# Reference: patent US20260345596A1, “TREATMENT OF LOCALLY ADVANCED OR METASTATIC UROTHELIAL CARCINOMA WITH ERDAFINITIB” (priority 2023, published 2026)
# Assay: Study BLC3001 (NCT03390504, THOR) Cohort 1: safety, adverse events, laboratory abnormalities and exposure
# Settings: for Central serous retinopathy / Chorioretinopathy / Detachment of macular retinal pigment epithelium / Detachment of retinal pigment epithelium / Eye disorders (excluding central serous retinopathy) / Macular detachment / Nail disorders / Retinopathy / Skin disorders / Subretinal fluid: adverse events of interest; for Hematuria / Hyponatremia / Urinary tract infection: serious adverse events, any cause
smiles,measurement,setting,value
"COc1cc(OC)cc(N(CCNC(C)C)c2ccc3ncc(-c4cnn(C)c4)nc3c2)c1 [Erdafitinib, N-(3,5-dimethoxyphenyl)-N′-(1-methylethyl)-N-[3-(1-methyl-1H-pyrazol-4-yl)quinoxalin-6-yl]ethane-1,2-diamine]",Ongoing central serous retinopathy events of grade 1,5 of 7 ongoing,71%
same,Central serous retinopathy events resolved by clinical cutoff,"16 of 23 patients, any grade",70%
same,Central serous retinopathy,Grade 1,12 (8.9) no. (%)
same,Chorioretinopathy,Grade 1,5 (3.7) no. (%)
same,Detachment of macular retinal pigment epithelium,Grade 1,0 no. (%)
same,Detachment of retinal pigment epithelium,Grade 1,3 (2.2) no. (%)
same,Eye disorders (excluding central serous retinopathy),Grade 1,37 (27.4) no. (%)
same,Macular detachment,Grade 1,2 (1.5) no. (%)
same,Nail disorders,Grade 1,25 (18.5) no. (%)
same,Retinopathy,Grade 1,0 no. (%)
same,Skin disorders,Grade 1,27 (20) no. (%)
same,Subretinal fluid,Grade 1,4 (3.0) no. (%)
same,Hematuria,Grade 1,0 no. (%)
same,Hyponatremia,Grade 1,0 no. (%)
same,Urinary tract infection,Grade 1,0 no. (%)
same,Alanine aminotransferase increased,"Grade 1, treatment-emergent",28 (20.7) no. (%)
same,Alopecia,"Grade 1, treatment-emergent",29 (21.5) no. (%)
same,Anemia,"Grade 1, treatment-emergent",10 (7.4) no. (%)
same,Aspartate aminotransferase increased,"Grade 1, treatment-emergent",21 (15.6) no. (%)
same,Asthenia,"Grade 1, treatment-emergent",6 (4.4) no. (%)
same,Constipation,"Grade 1, treatment-emergent",24 (17.8) no. (%)
same,Decreased appetite,"Grade 1, treatment-emergent",18 (13.3) no. (%)
same,Diarrhea,"Grade 1, treatment-emergent",49 (36.3) no. (%)
same,Dry eye,"Grade 1, treatment-emergent",20 (14.8) no. (%)
same,Dry mouth,"Grade 1, treatment-emergent",45 (33.3) no. (%)
same,Dry skin,"Grade 1, treatment-emergent",23 (17.0) no. (%)
same,Dysgeusia,"Grade 1, treatment-emergent",28 (20.7) no. (%)
same,Fatigue,"Grade 1, treatment-emergent",12 (8.9) no. (%)
same,Hyperphosphatemia,"Grade 1, treatment-emergent",70 (51.9) no. (%)
same,Nausea,"Grade 1, treatment-emergent",10 (7.4) no. (%)
same,Neutropenia,"Grade 1, treatment-emergent",0 no. (%)
same,Onycholysis,"Grade 1, treatment-emergent",9 (6.7) no. (%)
same,Onychomadesis,"Grade 1, treatment-emergent",9 (6.7) no. (%)
same,Palmar-plantar erythrodysesthesia syndrome,"Grade 1, treatment-emergent",6 (4.4) no. (%)
same,Stomatitis,"Grade 1, treatment-emergent",22 (16.3) no. (%)
same,Weight decreased,"Grade 1, treatment-emergent",12 (8.9) no. (%)
same,Alanine aminotransferase increased,"Grade 1, treatment-related",18 (13.3) no. (%)
same,Alopecia,"Grade 1, treatment-related",27 (20.0) no. (%)
same,Anemia,"Grade 1, treatment-related",8 (5.9) no. (%)
same,Aspartate aminotransferase increased,"Grade 1, treatment-related",18 (13.3) no. (%)
same,Asthenia,"Grade 1, treatment-related",4 (3.0) no. (%)
same,Constipation,"Grade 1, treatment-related",8 (5.9) no. (%)
same,Decreased appetite,"Grade 1, treatment-related",15 (11.1) no. (%)
same,Diarrhea,"Grade 1, treatment-related",43 (31.9) no. (%)
same,Dry eye,"Grade 1, treatment-related",19 (14.1) no. (%)
same,Dry mouth,"Grade 1, treatment-related",44 (32.6) no. (%)
same,Dry skin,"Grade 1, treatment-related",22 (16.3) no. (%)
same,Dysgeusia,"Grade 1, treatment-related",25 (18.5) no. (%)
same,Fatigue,"Grade 1, treatment-related",12 (8.9) no. (%)
same,Hyperphosphatemia,"Grade 1, treatment-related",70 (51.9) no. (%)
same,Nausea,"Grade 1, treatment-related",6 (4.4) no. (%)
same,Neutropenia,"Grade 1, treatment-related",0 no. (%)
same,Onycholysis,"Grade 1, treatment-related",9 (6.7) no. (%)
same,Onychomadesis,"Grade 1, treatment-related",8 (5.9) no. (%)
same,Palmar-plantar erythrodysesthesia syndrome,"Grade 1, treatment-related",6 (4.4) no. (%)
same,Stomatitis,"Grade 1, treatment-related",20 (14.8) no. (%)
same,Central serous retinopathy,Grade 2,8 (5.9) no. (%)
same,Chorioretinopathy,Grade 2,3 (2.2) no. (%)
same,Detachment of macular retinal pigment epithelium,Grade 2,0 no. (%)
same,Detachment of retinal pigment epithelium,Grade 2,2 (1.5) no. (%)
same,Eye disorders (excluding central serous retinopathy),Grade 2,17 (12.6) no. (%)
same,Macular detachment,Grade 2,0 no. (%)
same,Nail disorders,Grade 2,50 (37.0) no. (%)
same,Retinopathy,Grade 2,2 (1.5) no. (%)
same,Skin disorders,Grade 2,31 (23.0) no. (%)
same,Subretinal fluid,Grade 2,1 (0.7) no. (%)
same,Hematuria,Grade 2,2 (1.5) no. (%)
same,Hyponatremia,Grade 2,0 no. (%)
same,Urinary tract infection,Grade 2,0 no. (%)
same,Alanine aminotransferase increased,"Grade 2, treatment-emergent",8 (5.9) no. (%)
same,Alopecia,"Grade 2, treatment-emergent",4 (3.0) no. (%)
same,Aspartate aminotransferase increased,"Grade 2, treatment-emergent",5 (3.7) no. (%)
same,Asthenia,"Grade 2, treatment-emergent",12 (8.9) no. (%)
same,Constipation,"Grade 2, treatment-emergent",12 (8.9) no. (%)
same,Decreased appetite,"Grade 2, treatment-emergent",14 (10.4) no. (%)
same,Diarrhea,"Grade 2, treatment-emergent",31 (23.0) no. (%)
same,Dry eye,"Grade 2, treatment-emergent",3 (2.2) no. (%)
same,Dry mouth,"Grade 2, treatment-emergent",8 (5.9) no. (%)
same,Dry skin,"Grade 2, treatment-emergent",6 (4.4) no. (%)
same,Dysgeusia,"Grade 2, treatment-emergent",8 (5.9) no. (%)
same,Fatigue,"Grade 2, treatment-emergent",8 (5.9) no. (%)
same,Hyperphosphatemia,"Grade 2, treatment-emergent",31 (23.0) no. (%)
same,Nausea,"Grade 2, treatment-emergent",8 (5.9) no. (%)
same,Neutropenia,"Grade 2, treatment-emergent",0 no. (%)
same,Onycholysis,"Grade 2, treatment-emergent",14 (10.4) no. (%)
same,Onychomadesis,"Grade 2, treatment-emergent",17 (12.6) no. (%)
same,Palmar-plantar erythrodysesthesia syndrome,"Grade 2, treatment-emergent",22 (16.3) no. (%)
same,Stomatitis,"Grade 2, treatment-emergent",32 (23.7) no. (%)
same,Weight decreased,"Grade 2, treatment-emergent",15 (11.1) no. (%)
same,Alanine aminotransferase increased,"Grade 2, treatment-related",7 (5.2) no. (%)
same,Alopecia,"Grade 2, treatment-related",4 (3.0) no. (%)
same,Anemia,"Grade 2, treatment-related",4 (3.0) no. (%)
same,Aspartate aminotransferase increased,"Grade 2, treatment-related",5 (3.7) no. (%)
same,Asthenia,"Grade 2, treatment-related",6 (4.4) no. (%)
same,Constipation,"Grade 2, treatment-related",4 (3.0) no. (%)
same,Decreased appetite,"Grade 2, treatment-related",10 (7.4) no. (%)
same,Diarrhea,"Grade 2, treatment-related",27 (20.0) no. (%)
same,Dry eye,"Grade 2, treatment-related",3 (2.2) no. (%)
same,Dry mouth,"Grade 2, treatment-related",8 (5.9) no. (%)
same,Dry skin,"Grade 2, treatment-related",6 (4.4) no. (%)
same,Dysgeusia,"Grade 2, treatment-related",8 (5.9) no. (%)
same,Fatigue,"Grade 2, treatment-related",6 (4.4) no. (%)
same,Hyperphosphatemia,"Grade 2, treatment-related",29 (21.5) no. (%)
same,Nausea,"Grade 2, treatment-related",7 (5.2) no. (%)
same,Neutropenia,"Grade 2, treatment-related",0 no. (%)
same,Onycholysis,"Grade 2, treatment-related",14 (10.4) no. (%)
same,Onychomadesis,"Grade 2, treatment-related",17 (12.6) no. (%)
same,Palmar-plantar erythrodysesthesia syndrome,"Grade 2, treatment-related",22 (16.3) no. (%)
same,Stomatitis,"Grade 2, treatment-related",31 (23.0) no. (%)
same,Central serous retinopathy,Grade ≥3,3 (2.2) no. (%)
same,Chorioretinopathy,Grade ≥3,0 no. (%)
same,Detachment of macular retinal pigment epithelium,Grade ≥3,1 (0.7) no. (%)
same,Detachment of retinal pigment epithelium,Grade ≥3,2 (1.5) no. (%)
same,Eye disorders (excluding central serous retinopathy),Grade ≥3,3 (2.2) no. (%)
same,Macular detachment,Grade ≥3,0 no. (%)
same,Nail disorders,Grade ≥3,15 (11.1) no. (%)
same,Retinopathy,Grade ≥3,0 no. (%)
same,Skin disorders,Grade ≥3,16 (11.9) no. (%)
same,Subretinal fluid,Grade ≥3,0 no. (%)
same,Hematuria,Grade ≥3,3 (2.2) no. (%)
same,Hyponatremia,Grade ≥3,3 (2.2) no. (%)
same,Urinary tract infection,Grade ≥3,6 (4.4) no. (%)
same,Alanine aminotransferase increased,"Grade ≥3, treatment-emergent",4 (3.0) no. (%)
same,Alopecia,"Grade ≥3, treatment-emergent",1 (0.7) no. (%)
same,Anemia,"Grade ≥3, treatment-emergent",10 (7.4) no. (%)
same,Aspartate aminotransferase increased,"Grade ≥3, treatment-emergent",3 (2.2) no. (%)
same,Asthenia,"Grade ≥3, treatment-emergent",2 (1.5) no. (%)
same,Constipation,"Grade ≥3, treatment-emergent",0 no. (%)
same,Decreased appetite,"Grade ≥3, treatment-emergent",4 (3.0) no. (%)
same,Diarrhea,"Grade ≥3, treatment-emergent",4 (3.0) no. (%)
same,Dry eye,"Grade ≥3, treatment-emergent",0 no. (%)
same,Dry mouth,"Grade ≥3, treatment-emergent",0 no. (%)
same,Dry skin,"Grade ≥3, treatment-emergent",2 (1.5) no. (%)
same,Dysgeusia,"Grade ≥3, treatment-emergent",1 (0.7) no. (%)
same,Fatigue,"Grade ≥3, treatment-emergent",0 no. (%)
same,Hyperphosphatemia,"Grade ≥3, treatment-emergent",7 (5.2) no. (%)
same,Nausea,"Grade ≥3, treatment-emergent",2 (1.5) no. (%)
same,Neutropenia,"Grade ≥3, treatment-emergent",0 no. (%)
same,Onycholysis,"Grade ≥3, treatment-emergent",8 (5.9) no. (%)
same,Onychomadesis,"Grade ≥3, treatment-emergent",2 (1.5) no. (%)
same,Palmar-plantar erythrodysesthesia syndrome,"Grade ≥3, treatment-emergent",13 (9.6) no. (%)
same,Stomatitis,"Grade ≥3, treatment-emergent",11 (8.1) no. (%)
same,Weight decreased,"Grade ≥3, treatment-emergent",3 (2.2) no. (%)
same,Alanine aminotransferase increased,"Grade ≥3, treatment-related",4 (3.0) no. (%)
same,Alopecia,"Grade ≥3, treatment-related",1 (0.7) no. (%)
same,Anemia,"Grade ≥3, treatment-related",4 (3.0) no. (%)
